Results as given in PMC11874007, “Switching Roles—Exploring Concentration-Dependent Agonistic versus Antagonistic Behavior of Integrin Ligands” (Journal of Medicinal Chemistry, 2025).

Assays:
[1] = test system: OV-MZ-6 cells; assay: Cell adhesion in the presence of ligand, OV-MZ-6 cells; type: cell-based; conditions: 1 μM, 48 h
Experimental: Figure 10 (A) Effect of integrin ligands on cancer cell migration. […] Microscopical measurements of wound gaps were taken directly after setting the wound scratch and then after 9, 24, 48, and 72 h, respectively. Wound scratch assays were repeated at least three times. The extent of wound gap closure [%]/cell coverage was calculated by a python script utilizing Canny’s Edge Detection algorithm as described under Materials and summarized in the corresponding histograms (see also Scheme S5 in the Supporting Information). (B) Adhesion of M21, OV-MZ-6, and HN cells in the presence of the respective integrin targeting ligand at low (1 nM) and high (1 μM) concentrations. […] Depicted are typical microscopical images of the respective cell monolayers.

[2] = test system: HN cells (αvβ6+); assay: Time-dependent cellular uptake of Cy5.5-labeled ligands, HN cells; type: cell-based; conditions: Cy5.5-labeled ligands, 1 μM
From the text: For intracellular drug delivery, integrin ligands designed as drug-conjugated vehicles have to be easily and selectively internalized by tumor cells (over)expressing the respective targeted integrin subtype. […] It should be noted here that HN, OV-MZ-6, and RKO cells also express low αvβ3 expression levels.
Figure 7 Cellular uptake of Cy5.5-labeled integrin ligands. […] Nuclei were costained with Hoechst 33342 (blue signal) and cell membranes with CellMask Green (green signal). Merge of stains (yellow signal) indicated colocalization of ligands at the cell membrane. Scale bar: 50 μm.
Microchamber cell culture slides were coated with fibronectin (2 μg/mL), followed by cell seeding at a density of 50,000 cells/well. After 24 h of cultivation, cells were treated with integrin ligands L1-Cy5.5 to L5-Cy5.5 (1 μM in 0.01% (w/v) CaCl2 and 0.1% (w/v) BSA in PBS; 250 μL/well) for 3, 30, 60, or 300 min at 37 °C. The cells were washed in PBS/0.01% (w/v) CaCl2 (6 × 800 μL) and the fluorescence signal intensity recorded using the LSM 700 microscope (Zeiss, Jena, Germany). CellMask Green Plasma Membrane Stain was used to stain the cell membrane; nuclei were stained with Hoechst 33342.

[3] = target: T1, human αvβ6-integrin (Homo sapiens, UniProt P06756+P18564); conditions: previously published values; cited from earlier work
T1 construct: purchased R&D 3817-AV-050
T1 sequence (P06756 31-992 limits assumed): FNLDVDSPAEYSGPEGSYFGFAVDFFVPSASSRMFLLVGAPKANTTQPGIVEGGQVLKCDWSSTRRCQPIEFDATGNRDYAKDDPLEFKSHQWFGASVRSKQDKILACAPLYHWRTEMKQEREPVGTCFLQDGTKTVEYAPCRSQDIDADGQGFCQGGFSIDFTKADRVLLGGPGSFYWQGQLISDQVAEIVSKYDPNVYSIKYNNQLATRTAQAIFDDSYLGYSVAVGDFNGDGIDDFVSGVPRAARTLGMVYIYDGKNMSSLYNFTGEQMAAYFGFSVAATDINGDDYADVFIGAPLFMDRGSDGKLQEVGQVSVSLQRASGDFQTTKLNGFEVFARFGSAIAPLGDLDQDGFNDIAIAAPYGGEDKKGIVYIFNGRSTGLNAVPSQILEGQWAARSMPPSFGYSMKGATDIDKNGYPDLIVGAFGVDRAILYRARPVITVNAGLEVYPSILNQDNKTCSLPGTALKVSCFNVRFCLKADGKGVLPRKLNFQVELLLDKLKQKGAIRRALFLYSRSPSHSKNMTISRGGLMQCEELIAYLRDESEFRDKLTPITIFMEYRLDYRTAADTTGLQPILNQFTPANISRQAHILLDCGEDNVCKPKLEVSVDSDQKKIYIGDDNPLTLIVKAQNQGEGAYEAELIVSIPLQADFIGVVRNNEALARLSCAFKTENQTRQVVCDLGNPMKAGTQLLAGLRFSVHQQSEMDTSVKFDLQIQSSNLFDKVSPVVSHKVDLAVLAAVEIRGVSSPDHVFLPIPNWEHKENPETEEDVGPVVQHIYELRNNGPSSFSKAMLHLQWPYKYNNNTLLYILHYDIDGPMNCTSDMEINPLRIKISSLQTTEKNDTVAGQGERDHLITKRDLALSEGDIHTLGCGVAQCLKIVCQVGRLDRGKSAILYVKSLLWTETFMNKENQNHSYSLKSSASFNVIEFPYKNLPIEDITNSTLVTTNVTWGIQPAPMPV
T1 sequence (P18564 22-707 limits assumed): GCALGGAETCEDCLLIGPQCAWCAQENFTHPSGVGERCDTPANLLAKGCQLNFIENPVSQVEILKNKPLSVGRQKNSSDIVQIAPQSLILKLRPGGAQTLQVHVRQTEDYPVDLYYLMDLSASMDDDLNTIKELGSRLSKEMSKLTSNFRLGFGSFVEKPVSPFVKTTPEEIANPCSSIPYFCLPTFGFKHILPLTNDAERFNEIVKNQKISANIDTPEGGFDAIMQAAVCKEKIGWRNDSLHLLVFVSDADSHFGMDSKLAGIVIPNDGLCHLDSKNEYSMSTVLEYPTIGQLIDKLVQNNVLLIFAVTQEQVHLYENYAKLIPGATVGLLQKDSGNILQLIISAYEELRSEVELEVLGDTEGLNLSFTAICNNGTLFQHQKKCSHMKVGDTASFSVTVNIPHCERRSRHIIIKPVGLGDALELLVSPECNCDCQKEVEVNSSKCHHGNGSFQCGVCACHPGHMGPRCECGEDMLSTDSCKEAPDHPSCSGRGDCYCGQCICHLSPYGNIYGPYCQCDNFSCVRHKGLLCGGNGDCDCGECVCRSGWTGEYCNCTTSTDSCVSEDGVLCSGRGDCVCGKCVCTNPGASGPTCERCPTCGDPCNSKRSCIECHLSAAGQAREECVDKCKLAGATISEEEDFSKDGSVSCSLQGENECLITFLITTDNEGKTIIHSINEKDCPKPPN

[4] = test system: FAK, p-FAK, p44/42erk-1/2 in αvβ6+ HN cells; assay: Western blot of FAK and p44/42erk-1/2 expression and activation, HN cells; type: cell-based
Experimental: Since agonistic ligand performance requires integrin activation and signaling, by Western blot analysis, we studied whether the different ligands alter the expression levels and activation states of FAK and p44/42^(erk-1/2). For this, the respective target integrin-expressing tumor cell types were incubated with the corresponding subtype-selective ligand at a concentration of 1 μM for 24 h (Figure 8). […] Signal intensities of FAK and p44/42^(erk-1/2) expression and activation (p-FAK and p-p44/42^(erk-1/2)) on Western blots were evaluated by densitometry. Data are depicted as GAPDH-normalized fluorescence signal intensities as n-fold, by setting values obtained for the respective untreated cells to “1”. […] MAPK p44/42^(erk-1/2) expression was approximately 2.2-fold augmented, p44/42^(erk-1/2) by approximately 2.5-fold. It also raised activation of p-FAK and p-p44/42^(erk-1/2) by approximately 2.2-fold and 3.1-fold, respectively, in α5β1+ OV-MZ-6 cells. […] Additionally, it raised FAK (approximately 1.7-fold) and p-p44/42^(erk-1/2) (approximately 2.4-fold) in α5β1+ OV-MZ-6 cells.
Figure 8 Effects of ligands on cellular expression and activation of integrin-related signaling molecules FAK and p44/42^(erk-1/2). […] Signal intensities for FAK and p-FAK, respectively, were evaluated by use of the Bio-Rad Imager Gel Doc XR+ and a ChemiDoc XRS+ Systems and the software Image Lab. Shown are typical representative Western blot images and the corresponding histograms depicting GAPDH-normalized signal intensities as n-fold by setting the values obtained for untreated cells to “1” (drawn as black line). For each cell line, cutouts of identical gels are depicted.
In order to capture early and transient changes in signaling activation following ligand treatment, we next reduced the observation periods to 5, 30, or 60 min and assessed FAK expression and activation. […] Depicted are typical Western blot images and the corresponding densitometrical evaluations of GAPDH-normalized signal intensities as n-fold, by setting that of the respective untreated cell type to “1” (Figure 9). […]

[5] = target: T2, human αvβ3-integrin (Homo sapiens, UniProt P05106+P06756); conditions: previously published values; cited from earlier work
T2 construct: purchased R&D 3050-AV-050
T2 sequence (P06756 31-992 limits assumed): as the sequence (P06756 31-992 limits assumed) above
T2 sequence (P05106 27-718 limits assumed): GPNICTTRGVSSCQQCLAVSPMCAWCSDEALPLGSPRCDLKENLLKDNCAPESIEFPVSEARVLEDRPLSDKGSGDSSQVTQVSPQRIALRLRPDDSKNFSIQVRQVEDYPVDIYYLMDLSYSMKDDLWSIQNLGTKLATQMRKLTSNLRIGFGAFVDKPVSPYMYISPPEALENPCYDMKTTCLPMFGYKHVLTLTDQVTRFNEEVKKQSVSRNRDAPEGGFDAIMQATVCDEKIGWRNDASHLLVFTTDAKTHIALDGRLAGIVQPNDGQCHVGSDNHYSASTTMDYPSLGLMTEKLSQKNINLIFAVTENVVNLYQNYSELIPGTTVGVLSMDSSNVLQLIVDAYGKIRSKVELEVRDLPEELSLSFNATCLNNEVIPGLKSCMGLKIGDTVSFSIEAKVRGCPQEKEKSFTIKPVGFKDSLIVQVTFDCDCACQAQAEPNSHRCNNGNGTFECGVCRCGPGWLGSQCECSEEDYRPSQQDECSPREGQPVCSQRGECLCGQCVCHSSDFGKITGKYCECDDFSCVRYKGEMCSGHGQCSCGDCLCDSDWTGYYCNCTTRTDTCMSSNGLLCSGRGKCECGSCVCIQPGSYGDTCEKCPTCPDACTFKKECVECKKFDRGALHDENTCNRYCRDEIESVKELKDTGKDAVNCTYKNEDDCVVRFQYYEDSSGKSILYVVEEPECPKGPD

## C#CCCC(=O)NCCCOc1cc(C)c(C(=O)N[C@@H](CNC(=O)CNC(=O)c2cccc(NC(=N)N)c2)C(=O)O)c(C)c1 [L5, (S)-2-(2,6-Dimethyl-4-(3-(pent-4-ynamido)propoxy)benzamido)-3-(2-(3-guanidinobenzamido)acetamido)propanoic Acid]
[1]
  Effect on cell adhesion / attachment: performed as inhibitors of cell attachment

## c(FRGDLAFp(NMe)K) [L3]
[2]
  Cellular uptake, comparison of αvβ6 ligands: better cellular uptake than L4
[3]
  IC50: 0.28 ± 0.019 nM
[4]; 1 μM, 24 h, in either cell type
  Modulation of signaling molecules (FAK, p44/42erk-1/2): not effective in modulating signaling molecules
[4]; HN cells, 1 nM
  p-FAK, elevated levels within 30 min: approximately five
[4]; HN cells, both concentrations (1 nM, 1 μM), within 60 min
  FAK expression versus untreated cells: slight increase
[5]
  IC50: > 1000 nM
